Experimental data: patent US6875578B2, “System for cell-based screening” (priority 1997, dated 2005)
“Also recorded” adds a separate entry of the source.

How the values were obtained:
[1] = test system: microtubule arrays (tubulin-GFP chimera); test: Microtubule disruption assay, LLCPK cells with tubulin-GFP biosensor; assay type: cell-based, pig; details: 10-500 nM, 12 hour time point
Method: For microtubule disruption assays, LLCPK cells stably transfected with a tubulin-GFP biosensor plasmid were plated on 96 well cell culture dishes at 50-60% confluence and cultured overnight at 37° C., 5% CO2. […] The cells were then observed with the cell screening system described above, at a 12 hour time point.

[2] = test system: MCF-7 cells; test: Apoptosis mitochondrial mass/potential, MCF-7 cells; assay type: cell-based; details: 30 hours
Method: Cells were plated into 96-well plates at densities of 3×10^3 to 1×10^4 cells/well. The following day apoptotic inducers were added at the indicated concentrations and cells were incubated for the indicated time periods (usually 16-30 hours). Cells were stained with 5 μg/ml Hoechst (Molecular Probes, Inc.) and 750 nM MITOTRACKER™ Red (CMXRos, Molecular Probes, Inc.) in fresh medium and incubated for 30 minutes at 37° C. Cells were washed in HBSS and fixed with 3.7% formaldehyde in HBSS at room temperature. Plates were washed with HBSS and permeabilized with 0.5% v/v TRITON™ X-100 in HBSS at room temperature. Cells were washed 2× with HBSS at room temperature and the plate was sealed. For dual labeling of mitochondria, cells were treated with 200 nM MITOTRACKER™ Green and 200 nM MITOTRACKER™ Red for 0.5 hours before fixation.
The mitochondrial membrane potential is measured by labeling mitochondria with both MITOTRACKER™ Green FM and MITOTRACKER™ Red (Molecular Probes, mc). MITOTRACKER™ Red labeling is proportional to both mass and membrane potential. MITOTRACKER™ Green FM labeling is proportional to mass. The ratio of MITOTRACKER™ Red signal to the MITOTRACKER™ Green FM signal provides a measure of mitochondrial membrane potential (Poot and Pierce, 1999). This ratio normalizes the […]. […]

[3] = test system: L-929 cells; test: High-content screen of paclitaxel-induced apoptosis, L-929 cells; assay type: cell-based, mouse
Method: The cells chosen for this study were mouse connective tissue fibroblasts (L-929; ATCC CCL-1) and a highly invasive glioblastoma cell line (SNB-19; ATCC CRL-2219) (Welch et al., In Vitro Cell. Dev. Bid. 31:610, 1995). The day before treatment with an apoptosis inducing drug, 3500 cells were placed into each well of a 96-well plate and incubated overnight at 37° C. in a humidified 5% CO2 atmosphere. The following day, the culture medium was removed from each well and replaced with fresh medium containing various concentrations of paclitaxel (0-50 μM) from a 20 mM stock made in DMSO. The maximal concentration of DMSO used in these experiments was 0.25%. The cells were then incubated for 26 h as above. At the end of the paclitaxel treatment period, each well received fresh medium containing 750 nM MITOTRACKER™ Red (Molecular Probes; Eugene, Oreg.) and 3 μg/ml Hoechst 33342 DNA-binding dye (Molecular Probes) and was incubated as above for 20 mm. Each well on the plate was then washed with HBSS and fixed with 3.7% formaldehyde in HBSS for 15 mm at room temperature. The formaldehyde was washed out with HBSS and the cells were permeabilized for 90 s with 0.5% (v/v) Triton X-100, washed with HBSS, incubated with 2 U ml^−1 BODIPY™ FL phallacidin (Molecular Probes) for 30 mm, and washed with HBSS. The wells on the plate were then filled with 200 μl HBSS, sealed, and the plate stored at 4° C. if necessary. The fluorescence signals from plates stored this way were stable for at least two weeks after preparation. As in the nuclear translocation assay, fluorescence reagents can be designed to convert this assay into a live cell high-content screen.
The fluorescence intensity of intracellular MITOTRACKER™ Red, Hoechst 33342, and BODIPY™ FL phallacidin was measured with the cell screening system as described supra. Morphometric data from each pair of images obtained from each well was also obtained to detect each object in the image field (e.g., cells and nuclei), and to calculate its size, shape, and integrated intensity.
A total of 50-250 cells were measured per image field. For each field of cells, the following calculations were performed: (1) The average nuclear area (μm^2) was calculated by dividing the total nuclear area in a field by the number of nuclei detected. (2) The average nuclear perimeter (μm) was calculated by dividing the sum of the perimeters of all nuclei in a field by the number of nuclei detected in that field. Highly convoluted apoptotic nuclei had the largest nuclear perimeter values. (3) The average nuclear brightness was calculated by dividing the integrated intensity of the entire field of nuclei by the number of nuclei in that field. An increase in nuclear brightness was correlated with increased DNA content. (4) The average cellular brightness was calculated by dividing the integrated intensity of an entire field of cells stained with MITOTRACKER™ dye by the number of nuclei in that field. Because the amount of MITOTRACKER™ dye that accumulates within the mitochondria is proportional to the mitochondrial potential, an increase in the average cell brightness is consistent with an increase in mitochondrial potential. (5) The average cellular brightness was also calculated by dividing the integrated intensity of an entire field of cells stained with BODIPY™ FL phallacidin dye by the number of nuclei in that field. […]

In the case of `CC(=O)O[C@H]1C(=O)[C@@]2(C)[C@H]([C@H](OC(=O)c3ccccc3)[C@]3(O)C[C@H](OC(=O)[C@H](O)[C@@H](NC(=O)c4ccccc4)c4ccccc4)C(C)=C1C3(C)C)[C@]1(OC(C)=O)CO[C@@H]1C[C@@H]2O` [paclitaxel], the “Response of microtubule arrays” value [1] is reported as “Stabilization”, the “mitochondrial changes (mass / membrane potential)” value [2] is reported as “consistent increases in mitochondrial mass; also recorded: an increase in mitochondrial mass” and the “sensitivity, each parameter measured” value ([3]; L-929 cells compared with SNB-19 cells) is reported as “less sensitive to low concentrations of paclitaxel than were SNB-19 cells”. The “concentration of maximal response in many parameters” value ([3]; L-929 cells, 26 h) was 5 µM, the mitochondrial potential ([3]; L-929 cells, any of the concentrations tested (0-50 μM), 26 h) was “did not show a sharp decrease in mitochondrial potential” and the nuclear morphology ([3]; L-929 cells, increasing amounts, 26 h) was “caused nuclei to enlarge and fragment”. The “dose of maximal response relative to SNB-19 cells” value ([3]; L-929 vs SNB-19 cells) was 500 fold.
